Results published in ChEMBL document CHEMBL1909602, “Design and synthesis of novel triazole antifungal derivatives by structure-based bioisosterism” (Eur J Med Chem, 2011).
≈ marks a conversion by molar mass, not a printed value.

Experiments:
Cryptococcus neoformans = experiment: Antifungal activity against Cryptococcus neoformans 32609 after 72 hrs by serial dilution method; assay type: functional; conditions: Cryptococcus neoformans, 32609, 72 h
Pichia kudriavzevii = experiment: Antifungal activity against Candida krusei ATCC 6258 after 24 hrs by serial dilution method; assay type: functional; conditions: ATCC 6258, 24 h
Candida tropicalis = experiment: Antifungal activity against Candida tropicalis 087 after 24 hrs by serial dilution method; assay type: functional; conditions: Candida tropicalis, 087, 24 h
Candida albicans = experiment: Antifungal activity against Candida albicans Y0109 after 24 hrs by serial dilution method; assay type: functional; conditions: Y0109, 24 h
Aspergillus fumigatus = experiment: Antifungal activity against Aspergillus fumigatus 7544 after 7 days by serial dilution method; assay type: functional; conditions: Aspergillus fumigatus, 7544, 168 h
[1] = Hydrophobicity, Log P of the compound; assay type: physicochemical; conditions: octanol/water
Candida parapsilosis = experiment: Antifungal activity against Candida parapsilosis ATCC 22019 after 24 hrs by serial dilution method; assay type: functional; conditions: Lodderomyces parapsilosis, ATCC 22019, 24 h

| SMILES | MIC80 (Cryptococcus neoformans) | MIC80 (Pichia kudriavzevii) | MIC80 (Candida tropicalis) | MIC80 (Candida albicans) | MIC80 (Aspergillus fumigatus) | logP [1] | MIC80 (Candida parapsilosis) |
| --- | --- | --- | --- | --- | --- | --- | --- |
| O=c1n(-c2ccc(Cl)cc2)cnn1CCCN1CCN(CC(O)(Cn2cncn2)c2ccc(F)cc2F)CC1 (racemic) | 4 µg/mL (≈ 7.16 µM) | 0.25 µg/mL (≈ 0.447 µM) | 0.25 µg/mL (≈ 0.447 µM) | 0.0625 µg/mL (≈ 0.112 µM) | 8 µg/mL (≈ 14.3 µM) | 2.54 | 0.25 µg/mL (≈ 0.447 µM) |
| O=c1n(-c2ccc(Br)cc2)cnn1CCCN1CCN(CC(O)(Cn2cncn2)c2ccc(F)cc2F)CC1 (racemic) | 4 µg/mL (≈ 6.63 µM) | 1 µg/mL (≈ 1.66 µM) | 0.25 µg/mL (≈ 0.414 µM) | 0.25 µg/mL (≈ 0.414 µM) | 8 µg/mL (≈ 13.3 µM) | 2.61 | 0.25 µg/mL (≈ 0.414 µM) |
| O=c1n(-c2cccc(Cl)c2)cnn1CCCN1CCN(CC(O)(Cn2cncn2)c2ccc(F)cc2F)CC1 (racemic) | 4 µg/mL (≈ 7.16 µM) | > 64 µg/mL | 0.0625 µg/mL (≈ 0.112 µM) | 0.0625 µg/mL (≈ 0.112 µM) | 16 µg/mL (≈ 28.6 µM) | 2.54 | 0.25 µg/mL (≈ 0.447 µM) |
| O=c1n(-c2ccc(F)cc2)cnn1CCCN1CCN(CC(O)(Cn2cncn2)c2ccc(F)cc2F)CC1 (racemic) | > 64 µg/mL | > 64 µg/mL | 0.25 µg/mL (≈ 0.461 µM) | 0.25 µg/mL (≈ 0.461 µM) | > 64 µg/mL | 2.02 | 1 µg/mL (≈ 1.84 µM) |
| Cc1cccc(C)c1-n1cnn(CCCN2CCN(CC(O)(Cn3cncn3)c3ccc(F)cc3F)CC2)c1=O (racemic) | > 64 µg/mL | 1 µg/mL (≈ 1.81 µM) | 0.25 µg/mL (≈ 0.452 µM) | 1 µg/mL (≈ 1.81 µM) | > 64 µg/mL | 2.65 | 4 µg/mL (≈ 7.24 µM) |
| Cc1ccc(-n2cnn(CCCN3CCN(CC(O)(Cn4cncn4)c4ccc(F)cc4F)CC3)c2=O)cc1Cl (racemic) | 1 µg/mL (≈ 1.75 µM) | 0.25 µg/mL (≈ 0.436 µM) | 0.25 µg/mL (≈ 0.436 µM) | 0.0625 µg/mL (≈ 0.109 µM) | 4 µg/mL (≈ 6.98 µM) | 2.91 | 0.25 µg/mL (≈ 0.436 µM) |
| Cc1ccc(-n2cnn(CCCN3CCN(CC(O)(Cn4cncn4)c4ccc(F)cc4F)CC3)c2=O)cc1[N+](=O)[O-] (racemic) | 16 µg/mL (≈ 27.4 µM) | > 64 µg/mL | 0.25 µg/mL (≈ 0.428 µM) | 0.25 µg/mL (≈ 0.428 µM) | > 64 µg/mL | 2.11 | 1 µg/mL (≈ 1.71 µM) |
| O=c1n(-c2ccccc2)cnn1CCCN1CCN(CC(O)(Cn2cncn2)c2ccc(F)cc2F)CC1 (racemic) | 8 µg/mL (≈ 15.3 µM) | 1 µg/mL (≈ 1.91 µM) | 1 µg/mL (≈ 1.91 µM) | 0.25 µg/mL (≈ 0.477 µM) | > 64 µg/mL | 1.92 | 1 µg/mL (≈ 1.91 µM) |
| Cc1cccc(-n2cnn(CCCN3CCN(CC(O)(Cn4cncn4)c4ccc(F)cc4F)CC3)c2=O)c1 (racemic) | 8 µg/mL (≈ 14.9 µM) | 1 µg/mL (≈ 1.86 µM) | 0.25 µg/mL (≈ 0.464 µM) | 0.25 µg/mL (≈ 0.464 µM) | 8 µg/mL (≈ 14.9 µM) | 2.28 | 1 µg/mL (≈ 1.86 µM) |
| O=c1n(-c2ccccc2F)cnn1CCCN1CCN(CC(O)(Cn2cncn2)c2ccc(F)cc2F)CC1 (racemic) | > 64 µg/mL | > 64 µg/mL | 1 µg/mL (≈ 1.84 µM) | 0.25 µg/mL (≈ 0.461 µM) | > 64 µg/mL | 2.02 | 1 µg/mL (≈ 1.84 µM) |
| O=c1n(-c2ccc(F)c(Cl)c2)cnn1CCCN1CCN(CC(O)(Cn2cncn2)c2ccc(F)cc2F)CC1 (racemic) | 1 µg/mL (≈ 1.73 µM) | 0.25 µg/mL (≈ 0.433 µM) | 0.0625 µg/mL (≈ 0.108 µM) | 0.0625 µg/mL (≈ 0.108 µM) | 4 µg/mL (≈ 6.93 µM) | 2.65 | 0.25 µg/mL (≈ 0.433 µM) |
| Cc1ccc(-n2cnn(CCCN3CCN(CC(O)(Cn4cncn4)c4ccc(F)cc4F)CC3)c2=O)cc1 (racemic) | 8 µg/mL (≈ 14.9 µM) | 1 µg/mL (≈ 1.86 µM) | 0.25 µg/mL (≈ 0.464 µM) | 0.25 µg/mL (≈ 0.464 µM) | > 64 µg/mL | 2.28 | 1 µg/mL (≈ 1.86 µM) |
| CC(C)(C)c1ccc(-n2cnn(CCCN3CCN(CC(O)(Cn4cncn4)c4ccc(F)cc4F)CC3)c2=O)cc1 (racemic) | 1 µg/mL (≈ 1.72 µM) | 0.25 µg/mL (≈ 0.431 µM) | 0.25 µg/mL (≈ 0.431 µM) | 0.25 µg/mL (≈ 0.431 µM) | 1 µg/mL (≈ 1.72 µM) | 3.59 | 0.25 µg/mL (≈ 0.431 µM) |
| CCOc1ccc(-n2cnn(CCCN3CCN(CC(O)(Cn4cncn4)c4ccc(F)cc4F)CC3)c2=O)cc1 (racemic) | 8 µg/mL (≈ 14.1 µM) | 1 µg/mL (≈ 1.76 µM) | 1 µg/mL (≈ 1.76 µM) | 0.25 µg/mL (≈ 0.44 µM) | > 64 µg/mL | 2.25 | 1 µg/mL (≈ 1.76 µM) |
| Cc1ccc(-n2cnn(CCCN3CCN(CC(O)(Cn4cncn4)c4ccc(F)cc4F)CC3)c2=O)cc1C (racemic) | 4 µg/mL (≈ 7.24 µM) | 1 µg/mL (≈ 1.81 µM) | 0.25 µg/mL (≈ 0.452 µM) | 0.25 µg/mL (≈ 0.452 µM) | 8 µg/mL (≈ 14.5 µM) | 2.65 | 0.25 µg/mL (≈ 0.452 µM) |
| O=c1n(-c2ccc(Cl)c(Cl)c2)cnn1CCCN1CCN(CC(O)(Cn2cncn2)c2ccc(F)cc2F)CC1 (racemic) | 1 µg/mL (≈ 1.69 µM) | 0.25 µg/mL (≈ 0.421 µM) | 0.0625 µg/mL (≈ 0.105 µM) | 0.0625 µg/mL (≈ 0.105 µM) | 4 µg/mL (≈ 6.74 µM) | 3.17 | 0.25 µg/mL (≈ 0.421 µM) |
| OC(Cn1cncn1)(Cn1cncn1)c1ccc(F)cc1F [FLUCONAZOLE] | 16 µg/mL (≈ 52.2 µM) | 0.25 µg/mL (≈ 0.816 µM) | 0.0625 µg/mL (≈ 0.204 µM) | 0.25 µg/mL (≈ 0.816 µM) | > 64 µg/mL | – | 1 µg/mL (≈ 3.27 µM) |
| Cc1cc(C)cc(-n2cnn(CCCN3CCN(CC(O)(Cn4cncn4)c4ccc(F)cc4F)CC3)c2=O)c1 (racemic) | 4 µg/mL (≈ 7.24 µM) | 1 µg/mL (≈ 1.81 µM) | 0.25 µg/mL (≈ 0.452 µM) | 0.25 µg/mL (≈ 0.452 µM) | 8 µg/mL (≈ 14.5 µM) | 2.65 | 1 µg/mL (≈ 1.81 µM) |
| Cc1ccc(-n2cnn(CCCN3CCN(CC(O)(Cn4cncn4)c4ccc(F)cc4F)CC3)c2=O)c(C)c1 (racemic) | 8 µg/mL (≈ 14.5 µM) | 1 µg/mL (≈ 1.81 µM) | 1 µg/mL (≈ 1.81 µM) | 1 µg/mL (≈ 1.81 µM) | > 64 µg/mL | 2.65 | 1 µg/mL (≈ 1.81 µM) |
| Cc1ccc(C)c(-n2cnn(CCCN3CCN(CC(O)(Cn4cncn4)c4ccc(F)cc4F)CC3)c2=O)c1 (racemic) | 8 µg/mL (≈ 14.5 µM) | 1 µg/mL (≈ 1.81 µM) | 0.25 µg/mL (≈ 0.452 µM) | 0.25 µg/mL (≈ 0.452 µM) | > 64 µg/mL | 2.65 | 1 µg/mL (≈ 1.81 µM) |
| O=c1n(-c2ccc(I)cc2)cnn1CCCN1CCN(CC(O)(Cn2cncn2)c2ccc(F)cc2F)CC1 (racemic) | 4 µg/mL (≈ 6.15 µM) | 0.25 µg/mL (≈ 0.384 µM) | 0.25 µg/mL (≈ 0.384 µM) | 0.25 µg/mL (≈ 0.384 µM) | 8 µg/mL (≈ 12.3 µM) | 2.57 | 0.25 µg/mL (≈ 0.384 µM) |
